# Source: patent publication US9701670B2, “Pyrazolyl-ureas as kinase inhibitors” (RESPIVERT LIMITED, priority 2013, dated 2017)
# Experiments:
# [1] = molecular target: GSK 3α (Homo sapiens (Human), UniProt P49840); assay: GSK 3α enzyme inhibition (FRET, Z-LYTE), Method 2; format: biochemical; conditions: Method 2, different laboratory (Table 4a2); read-out: IC50 Values for Enzyme Inhibition GSK3α
# Experimental: (§1) The enzyme inhibitory activities of compounds disclosed herein are determined by FRET using synthetic peptides labelled with both donor and acceptor fluorophores (Z-LYTE, Invitrogen Ltd., Paisley, UK).
# The inhibitory activities of compounds of the invention against the GSK 3α enzyme isoform (Invitrogen), are evaluated by determining the level of activation/phosphorylation of the target peptide. The GSK3-α protein (500 ng/mL, 2.5 μL) is mixed with the test compound (2.5 μL at either 4 μg/mL, 0.4 μg/mL, 0.04 μg/mL, or 0.004 μg/mL) for 2 hr at RT. The FRET peptide (8 μM, 2.5 μL), which is a phosphorylation target for GSK3α, and ATP (40 μM, 2.5 μL) are then added to the enzyme/compound mixture and the resulting mixture incubated for 1 hr. Development reagent (protease, 5 μL) is added for 1 hr prior to detection in a fluorescence microplate reader (Varioskan® Flash, ThermoFisher Scientific).
# (§2) In all cases, the site-specific protease cleaves non-phosphorylated peptide only and eliminates the FRET signal. Phosphorylation levels of each reaction are calculated using the ratio of coumarin emission (donor) over fluorescein emission (acceptor), for which high ratios indicate high phosphorylation and low ratios indicate low phosphorylation levels.
# [2] = molecular target: T1, p38 MAPKα isoform (MAPK14) (Homo sapiens (Human), UniProt Q16539); assay: p38 MAPKα enzyme inhibition (FRET, Z-LYTE), Method 1; format: biochemical; conditions: Method 1 (Table 4a1)
# T1 sequence (Q16539 whole entry, canonical isoform): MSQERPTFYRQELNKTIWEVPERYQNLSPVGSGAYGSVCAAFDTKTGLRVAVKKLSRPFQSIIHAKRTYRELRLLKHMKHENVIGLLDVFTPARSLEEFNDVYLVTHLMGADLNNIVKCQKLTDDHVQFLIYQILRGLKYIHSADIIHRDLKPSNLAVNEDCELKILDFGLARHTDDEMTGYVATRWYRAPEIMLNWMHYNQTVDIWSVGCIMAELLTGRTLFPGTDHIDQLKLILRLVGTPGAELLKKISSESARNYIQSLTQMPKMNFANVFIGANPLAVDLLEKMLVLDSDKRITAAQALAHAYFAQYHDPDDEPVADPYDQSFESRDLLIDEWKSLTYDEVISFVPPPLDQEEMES
# [3] = tested on: Differentiated U937 cells; assay: (l) Cell viability: MTT assay; format: cell-based, human; conditions: 1 μg/mL
# Method in brief: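 MTT read-out (1 h, absorbance 550 nm) on d-U937 cells after pre-incubation with 1 or 10 μg/mL compound under two regimes: 4 h, 5% FCS, or 24 h, 10% FCS RPMI1640. Values are percent loss of viability relative to vehicle (0.5% DMSO), so increases are reported as negative.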
# [4] = tested on: BDF1 mice; assay: (C) TNBS-induced colitis in mice; format: in vivo, mouse; parameters: TNBS Ulcer grade / TNBS LP inflammation: scale not given here; conditions: 2 days; for TNBS LP inflammation / TNBS Ulcer grade: mice
# Experimental: Non-fasted, 10-12 week old, male BDF1 mice are dosed by oral gavage twice daily with either vehicle (5 mL/kg), reference item (Budesonide 2.5 mg/kg) or test compound (1, 5 or 50 mg/kg) one day before (Day −1) stimulation of the inflammatory response by treatment with 2,4,6-trinitrobenzenesulphonic acid (TNBS) (15 mg/mL in 50% ethanol/50% saline). On Day 0 of the study TNBS (200 μL) is administered intra-colonically via a plastic catheter followed by BID dosing of the vehicle, reference or test compound for 2 or 4 days. During the study animals are weighed every day and stool observations are made and recorded as a score, based on stool consistency. At the time of sacrifice on Day 2 (or Day 4) the large intestine is removed and the length and weight recorded. Sections of the colon are taken for either MPO analysis to determine neutrophil infiltration or for histopathology involving scoring to determine disease severity.
# [5] = molecular target: T1, p38 MAPKα isoform (MAPK14); assay: p38 MAPKα enzyme inhibition (FRET, Z-LYTE), Method 2; format: biochemical; conditions: Method 2, different laboratory (Table 4a2)
# Experimental: as §1
# The inhibitory activities of test compounds against the p38 MAPKα isoform (MAPK14: Invitrogen), are evaluated indirectly by determining the level of activation/phosphorylation of the down-stream molecule, MAPKAP-K2. The p38 MAPKα protein (80 ng/mL, 2.5 μL) is mixed with the test compound (2.5 μL of either 4 μg/mL, 0.4 μg/mL, 0.04 μg/mL or 0.004 μg/mL) for 2 hr at RT. […] The mixture is incubated for 1 hr at RT. Development reagent (protease, 5 μL) is added for 1 hr prior to detection in a fluorescence microplate reader (Varioskan® Flash, ThermoFisher Scientific).
# as §2
# [6] = tested on: Intestinal mucosa biopsies from the inflamed regions of the colon of IBD patients; assay: (h) Human biopsy assay (cytokine release); format: cell-based
# Experimental: Intestinal mucosa biopsies are obtained from the inflamed regions of the colon of IBD patients. The biopsy material is cut into small pieces (2-3 mm) and placed on steel grids in an organ culture chamber at 37° C. in a 5% CO2/95% O2 atmosphere in serum-free media. DMSO control or test compounds at the desired concentration are added to the tissue and incubated for 24 hr in the organ culture chamber. The supernatant is harvested for determination of IL-6, IL-8, […] and TNFα levels by R&D ELISA.
# [7] = tested on: β-catenin in d-U937 cells; assay: (m) Accumulation of β catenin in d-U937 cells; format: cell-based, human
# Experimental: U937 cells, a human monocytic cell line, are differentiated into macrophage-type cells by incubation with PMA; (100 ng/mL) for between 48 to 72 hr. The cells are then incubated with either final concentrations of test compound or vehicle for 18 hr. The induction of β-catenin by the test compounds is stopped by replacing the media with 4% formaldehyde solution. Endogenous peroxide activity is neutralised by incubating with quenching buffer (100 μL, 0.1% sodium azide, 1% H2O2 in PBS with 0.05% Tween-20) for 20 min. The cells are washed with washing buffer (200 μL; PBS containing 0.05% Tween-20) and incubated with blocking solution (200 μL; 5% milk in PBS) for 1 hr, re-washed with washing buffer (200 μL) and then incubated overnight with anti-β-catenin antibody solution (50 μL) in 1% BSA/PBS (BD, Oxford, UK).
# After washing with washing buffer (3×200 μL; PBS containing 0.05% Tween-20), cells are incubated with an HRP-conjugated secondary antibody solution (100 μL) in 1% BSA/PBS (Dako, Cambridge, UK) and the resultant signal is determined colourimetrically (OD: 450 nm with a reference wavelength of 655 nm) using TMB substrate (50 μL; R&D Systems, Abingdon, UK). This reaction is stopped by addition of 1N H2SO4 solution (50 μL). Cells are then washed with washing buffer and 2% crystal violet solution (50 μL) is applied for 30 min. After washing with washing buffer (3×200 μL), 1% SDS (100 μL) is added to each well and the plates are shaken lightly for 1 hr prior to measuring the absorbance at 595 nm (Varioskan® Flash, Thermo-Fisher Scientific).
# The measured OD450-655 readings are corrected for cell number by dividing the OD450-655 by the OD595 readings. […] A signal less than 0.15 (15%) of that observed for the standard control is designated as “-ve”.
# Chain of GSK 3α (P49840 whole entry): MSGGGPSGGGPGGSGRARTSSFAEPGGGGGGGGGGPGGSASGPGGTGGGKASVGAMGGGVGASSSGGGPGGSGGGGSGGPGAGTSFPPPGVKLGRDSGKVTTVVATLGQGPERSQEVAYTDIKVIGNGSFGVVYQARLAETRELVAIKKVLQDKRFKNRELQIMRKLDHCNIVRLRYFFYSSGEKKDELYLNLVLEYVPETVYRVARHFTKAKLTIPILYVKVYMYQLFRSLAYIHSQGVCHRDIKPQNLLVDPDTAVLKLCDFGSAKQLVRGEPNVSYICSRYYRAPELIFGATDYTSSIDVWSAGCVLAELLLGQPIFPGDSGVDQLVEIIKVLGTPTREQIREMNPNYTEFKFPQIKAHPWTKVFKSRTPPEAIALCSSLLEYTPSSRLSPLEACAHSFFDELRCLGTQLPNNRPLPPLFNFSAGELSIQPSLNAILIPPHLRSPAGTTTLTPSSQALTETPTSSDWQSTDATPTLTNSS
IC50 [1] [µM],IC50 [2] [µM],IC50 [5] [µM],SMILES,Cell viability at time point in d-U937 cells 4 h [3],Cell viability at time point in d-U937 cells 24 h [3],further results
15.3,–,–,"C#Cc1cc(Nc2nccc(Oc3ccc(NC(=O)Nc4cc(C(C)C)nn4-c4ccc(C)cc4)c(Cl)c3Cl)n2)cc(C(N)=O)c1 [Example 89, 3-((4-(2,3-Dichloro-4-(3-(3-isopropyl-1-(p-tolyl)-1H-pyrazol-5-yl)ureido)-phenoxy)pyrimidin-2-yl)amino)-5-ethynylbenzamide]",–,–,–
13.3,0.002,–,"COc1cc(Nc2nccc(Oc3ccc(NC(=O)Nc4cc(C5CC5)nn4-c4ccc(C)cc4)c4ccccc34)n2)cc(C(=O)NCCN2CCOCC2)c1 [Example 50, 3-((4-((4-(3-(3-cyclopropyl-1-(p-tolyl)-1H-pyrazol-5-yl)ureido)naphthalen-1-yl)oxy)pyrimidin-2-yl)amino)-5-methoxy-N-(2-morpholinoethyl)benzamide]","−ve (−ve and +ve indicate that the value is below and above respectively, the no significant effect threshold, defined as 30% inhibition at 1 μg/mL at the time point indicated.)","−ve (−ve and +ve indicate that the value is below and above respectively, the no significant effect threshold, defined as 30% inhibition at 1 μg/mL at the time point indicated.)",–
–,–,0.041,"C#Cc1cc(Nc2nccc(Oc3ccc(NC(=O)Nc4cc(C(C)C)nn4-c4ccc(C)cc4)c4ccccc34)n2)cc(C(=O)NCCN2CCOCC2)c1 [Example 46, 3-ethynyl-5-((4-((4-(3-(3-isopropyl-1-(p-tolyl)-1H-pyrazol-5-yl)ureido)naphthalen-1-yl)oxy)pyrimidin-2-yl)amino)-N-(2-morpholinoethyl)benzamide]","−ve (−ve and +ve indicate that the value is below and above respectively, the no significant effect threshold, defined as 30% inhibition at 1 μg/mL at the time point indicated.)","−ve (−ve and +ve indicate that the value is below and above respectively, the no significant effect threshold, defined as 30% inhibition at 1 μg/mL at the time point indicated.)","histopathology analysis, in vivo model of colonic inflammation ([4]; TNBS-induced colitis, dosed orally at 5 mg/kg): significant activity; TNBS LP inflammation ([4]; 1 mg/kg oral BID): 3.1 ± 0.6; TNBS Ulcer grade ([4]; 1 mg/kg oral BID): 3.4 ± 0.6; TNBS LP inflammation ([4]; 5 mg/kg oral BID): 2.0 ± 0.5; TNBS Ulcer grade ([4]; 5 mg/kg oral BID): 2.4 ± 0.6; Cytokine release from biopsies of UC patients IL-1b release ([6]; 1 μg/mL, DMSO control 100%): 35 ± 14%; Cytokine release from biopsies of UC patients IL-6 release ([6]; 1 μg/mL, DMSO control 100%): 44 ± 38%; Cytokine release from biopsies of UC patients IL-8 release ([6]; 1 μg/mL, DMSO control 100%): 49 ± 35%; cytokine release from biopsies from ulcerative colitis (UC) patients ([6]; added to biopsies in vitro): markedly reduced IL-1b, IL-6 and IL-8 release"
13.5,0.002,–,"CCc1cc(NC(=O)Nc2ccc(Oc3ccnc(Nc4cc(OC)cc(C(=O)NCCN5CCOCC5)c4)n3)c3ccccc23)n(-c2ccc(C)cc2)n1 [Example 49, 3-((4-((4-(3-(3-ethyl-1-(p-tolyl)-1H-pyrazol-5-yl)ureido)naphthalen-1-yl)oxy)pyrimidin-2-yl)amino)-5-methoxy-N-(2-morpholinoethyl)benzamide]","−ve (−ve and +ve indicate that the value is below and above respectively, the no significant effect threshold, defined as 30% inhibition at 1 μg/mL at the time point indicated.)","−ve (−ve and +ve indicate that the value is below and above respectively, the no significant effect threshold, defined as 30% inhibition at 1 μg/mL at the time point indicated.)",–
12.1,–,1.21,"C#Cc1cc(Nc2nccc(Oc3ccc(NC(=O)Nc4cc(C(F)(F)C(F)(F)F)nn4-c4ccc(C)cc4)c4ccccc34)n2)cc(C(=O)NCCN2CCOCC2)c1 [Example 74, 3-Ethynyl-N-(2-morpholinoethyl)-5-((4-((4-(3-(3-(perfluoroethyl)-1-(p-tolyl)-1H-pyrazol-5-yl)ureido)naphthalen-1-yl)oxy)pyrimidin-2-yl)amino)benzamide]",–,–,–
13.2,0.013,–,"COc1cc(C(=O)NCCN2CCOCC2)ccc1Nc1nccc(Oc2ccc(NC(=O)Nc3cc(C(C)C)nn3-c3ccc(C)cc3)c3ccccc23)n1 [Example 36, 4-((4-((4-(3-(3-isopropyl-1-(p-tolyl)-1H-pyrazol-5-yl)ureido)naphthalen-1-yl)oxy)pyrimidin-2-yl)amino)-3-methoxy-N-(2-morpholinoethyl)benzamide]","−ve (−ve and +ve indicate that the value is below and above respectively, the no significant effect threshold, defined as 30% inhibition at 1 μg/mL at the time point indicated.)","−ve (−ve and +ve indicate that the value is below and above respectively, the no significant effect threshold, defined as 30% inhibition at 1 μg/mL at the time point indicated.)",–
13.8,–,0.105,"C#Cc1cc(Nc2nccc(Oc3ccc(NC(=O)Nc4cc(C(C)(C)C)nn4-c4ccc(OC)cc4)c4ccccc34)n2)cc(C(=O)NCCOC)c1 [Example 84, 3-((4-((4-(3-(3-(tert-Butyl)-1-(4-methoxyphenyl)-1H-pyrazol-5-yl)ureido)-naphthalen-1-yl)oxy)pyrimidin-2-yl)amino)-5-ethynyl-N-(2-methoxyethyl)benzamide]",–,–,% β-catenin induction ([7]; 1 μg/mL test compound): 3%; % β-catenin induction ([7]; 5 μg/mL test compound): 3%; % β-catenin induction ([7]; 10 μg/mL test compound): 5%
